Measurements as given in patent US20260306463A1, “SIK INHIBITORS TO TREAT CHRONIC KIDNEY DISEASE” (The General Hospital Corporation, priority 2023, published 2026).
Entries after “also recorded” stand apart in the source; their conditions may differ.

How the values were obtained:
human kidney organoids [1] = test: RNA-seq of cisplatin-injured human kidney organoids; assay type: cell-based; details: for injury markers (Col8al, Fibronectin-1, Serpinel) / markers of intact proximal integrity (Lrp2 and Hnf4a): RNA-seq, cisplatin vs vehicle, or SK-124 vs DMSO within cisplatin-treated organoids
Description: FIGS. 13A-13E. Transcriptomic effects of SK-124 in cisplatin-induced human kidney organoid model. RNA-seq was performed on kidney organoid RNA samples (n=4/group) from FIG. 8. Volcano plot show gene regulated (>2-fold change, p(adj)<0.05) by cisplatin (versus vehicle, A) or within cisplatin-treated organoids by SK-124 (versus DMSO control, B). In Volcano plot, representative fibrosis/injury markers (Col8a1, Fni, Serpinel) and proximal tubule integrity (Lrp2 and Hnf4a) are shown. Scatterplot (C) and heatmap (D) showing integration of individual RNA-seq comparisons.
Isolated RNA samples from the mouse adenine diet study and human kidney organoid experiment were submitted to Novogene and bulk-RNA sequencing on NovaSeq X Plus Ilumina Novoseq Platform. Sequencing reads were mapped to the mouse reference genome (mm10/GRCm38) or human reference genome (GRCh38/hg38) using Salmon and differential gene expression analysis was performed using DESeq2.

human kidney organoids [2] = test: RT-qPCR in cisplatin-injured human kidney organoids; assay type: cell-based; details: for proximal tubule marker genes / fibrosis/injury marker genes: panel; for fibrosis/injury marker genes: five cisplatin cycles (FIG. 12B)
From the text: FIG. 8. SK-124 treatment restores gene expression changes in cisplatin-injured human kidney organoids. RNA was isolated from organoids treated as in FIG. 7 for RT-qPCR for the indicated genes. Injury markers (Pai-1, Fibronectin-1, and Co18a1) are induced by cisplatin treatment and reduced by SK-124. In contrast, the proximal tubule marker Lrp2 is reduced by cisplatin treatment and rescued by SK-124.
FIGS. 10A-10B. SK-124 treatment restores gene expression changes in cisplatin-injured human kidney organoids. RNA was isolated from organoids treated as in FIG. 9 with the indicated number of cisplatin cycles plus DMSO control (“Cis”) or SK-124 (10 μM; “Cis+SK”) for RT-qPCR. […] (B) Injury/fibrosis markers (FN-1, Co/8a1, and Pai-1) were induced by cisplatin and suppressed by SK-124.
FIGS. 12A-12B. SK-124 protects human kidney organoids from cisplatin injury in a dose-dependent manner. RNA was isolated from organoids treated as in FIG. 11 for RT-qPCR. (A) Proximal tubule marker genes are reduced by cisplatin and increased by SK-124. (B) Fibrosis/injury marker genes are induced by cisplatin and reduced by SK-124.
BJFF human induced pluripotent stem cells (hPSCs) were maintained on Geltrexcoated (Thermo Fisher Scientific) plates using StemFit Basic04 Complete (Ajinomoto Co. Inc.) as previously reported(25). The cells were passaged weekly using Accutase (STEMCELL Technologies) for dissociation and Y27632 (Tocris) for adhesion. Directed differentiation of hPSCs into kidney organoids has been published elsewhere (29). Briefly, hPSCs were differentiated into metanephric mesenchyme cells on day 8 by a three-step directed differentiation protocol. Metanephric mesenchyme was transferred into suspension culture in 96-well ultralow adhesion plates (Coming) and further differentiated into kidney organoids, as previously reported(25). Quality control measures of SIX2 immunostaining on day 8 of differentiation and CDH1, LTL, PODXL, CD146, MEIS1/2/3, and SYTOX-blue staining on day 21 were performed on all batches of kidney organoids to limit batch-to-batch heterogeneity. Kidney organoids were maintained in 200 μl of basal media consisting of Advanced RPMI (Thermo Fisher Scientific) and GlutaMAX (Thermo Fisher Scientific) in 96-well plates, as previously reported. Media changes were conducted three times weekly with removal of 90 [l and addition of 100 μl of fresh basal media.
For cisplatin induced injury, day 49 organoids were treated with 5 μM cisplatin in basal media after full media change. After 24 hours, full media exchanges were performed. This 24-hour treatment was performed twice a week, on day 52-53, day 56-57, day 59-60, and day 63-64 as well, for a total of five cisplatin treatments. Samples were obtained for RT-qPCR and immunostaining immediately following each 24-hour treatment with cisplatin, and from corresponding controls.
cDNA was prepared using Primescript RT kit (Takara Inc), with 750 ng RNA per reaction. RT-qPCR was performed by using PerfeCa® SYBR® Green FAstMix® ROX (Quanta bio) in the StepOnePlus™ Real-time PCR System (Applied Biosystems). Hmbs was used as a control housekeeping gene for mouse samples, and B-Actin was used for organoids, relative expression was calculated (2^-deltaCT method) and compared to the mean of control group if necessary. Primers used for RT-qPCR are listed in Table 2 (mouse primers) and Table 3 (human primers).

[3] = 5 cisplatin treatments (FIG. 8)
[4] = 5 cisplatin treatments (FIG. 8), Co18a1 [sic]
[5] = dose response, five cisplatin cycles (FIG. 12)
[6] = dose response, five cisplatin cycles (FIG. 12A)
[7] = time course, indicated number of cisplatin cycles, SK-124 10 μM (FIG. 10A)
[8] = time course, indicated number of cisplatin cycles, SK-124 10 μM (FIG. 10B)

SMILES | injury markers (Col8al, Fibronectin-1, Serpinel) (human kidney organoids [1]) | markers of intact proximal integrity (Lrp2 and Hnf4a) (human kidney organoids [1]) | Fibronectin-1 expression (human kidney organoids [2]; [3]) | Lrp2 expression (human kidney organoids [2]; [3]) | Pai-1 expression (human kidney organoids [2]; [3]) | Col8a1 expression (human kidney organoids [2]; [4]) | Col8al expression (human kidney organoids [2]; [5]) | Fibronectin-1 expression (human kidney organoids [2]; [5]) | Pai-1 expression (human kidney organoids [2]; [5]) | Lrp2 expression (human kidney organoids [2]; [6]) | Pth1r expression (human kidney organoids [2]; [6]) | proximal tubule marker genes (human kidney organoids [2]; [6]) | fibrosis/injury marker genes (human kidney organoids [2]; dose response) | Lrp2 expression (human kidney organoids [2]; [7]) | Slc17a2 expression (human kidney organoids [2]; [7]) | Col8a1 expression (human kidney organoids [2]; [8]) | Fibronectin-1 (FN-1) expression (human kidney organoids [2]; [8]) | Pai-1 expression (human kidney organoids [2]; [8]) | genes regulated in cisplatin (versus control) (human kidney organoids [1]; scatterplot and heatmap, SK-124 vs DMSO in the setting of injury) | doses at which therapeutic effects are noted in the injury model (human kidney organoids [2]; dose response, cisplatin-injured organoids)
N.N.[Cl][Pt][Cl] [cisplatin, reference compound] | induced | reduced | induced | reduced | induced | induced | induction | induction | induction | suppression | suppression | reduced | induced | progressively reduced | progressively reduced | induced | induced | induced |  | 
CCc1nnc(-c2c(OC)cc(-c3cnc4cc(-c5cnn(C)c5)ccn34)cc2OC)o1 [SK-124, 2-[2,6-Dimethoxy-4-[7-(1-methylpyrazol-4-yl)imidazo[1,2-a]pyridin-3-yl]phenyl]-5-ethyl-1,3,4-oxadiazole] | reduced | restored | reduced; also recorded: blocked | rescued; also recorded: preserved expression | reduced; also recorded: blocked | reduced; also recorded: blocked | suppressed | suppressed | suppressed | dose-dependent restoration | dose-dependent restoration | increased | reduced | restored; also recorded: improved expression | restored; also recorded: improved expression | suppressed expression | suppressed expression | suppressed expression | conversely regulated | below 1 μM
